The results in this text go back to patent publication US11401286B2 (Tetra Discovery Partners, LLC, priority 2012, dated 2022).

pIC50: −log10 of the molar value. Counter-ions that a name gives are not always drawn.

In one assay the target is PDE4D7 (Homo sapiens (Human), UniProt Q08499).
Chain of PDE4D7 (Q08499 other isoform, or with tags, fused parts or gaps): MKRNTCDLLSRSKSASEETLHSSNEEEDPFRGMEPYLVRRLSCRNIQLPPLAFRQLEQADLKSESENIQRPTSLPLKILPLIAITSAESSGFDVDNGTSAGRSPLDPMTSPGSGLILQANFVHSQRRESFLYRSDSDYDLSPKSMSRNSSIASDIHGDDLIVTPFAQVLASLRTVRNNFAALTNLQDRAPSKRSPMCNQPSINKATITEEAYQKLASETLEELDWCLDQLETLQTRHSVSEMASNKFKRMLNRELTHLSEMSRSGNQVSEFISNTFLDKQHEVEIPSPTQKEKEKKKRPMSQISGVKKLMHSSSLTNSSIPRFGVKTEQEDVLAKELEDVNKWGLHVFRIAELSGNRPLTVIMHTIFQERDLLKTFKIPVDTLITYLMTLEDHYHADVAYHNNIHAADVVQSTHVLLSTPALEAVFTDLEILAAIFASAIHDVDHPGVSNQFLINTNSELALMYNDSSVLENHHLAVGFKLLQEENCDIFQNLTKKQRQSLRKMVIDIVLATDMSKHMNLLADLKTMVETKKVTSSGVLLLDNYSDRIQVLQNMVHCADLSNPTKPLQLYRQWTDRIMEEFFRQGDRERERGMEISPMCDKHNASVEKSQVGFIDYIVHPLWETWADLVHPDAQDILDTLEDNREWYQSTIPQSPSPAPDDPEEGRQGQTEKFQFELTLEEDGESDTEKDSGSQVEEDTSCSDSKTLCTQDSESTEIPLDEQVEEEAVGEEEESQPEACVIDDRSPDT
Conditions: not given
Take `OCCc1ccc(Nc2ccnc(-c3cccc(Cl)c3)c2)cc1` [Example 84, 2-(4-((2-(3-Chlorophenyl)pyridin-4-yl)amino)phenyl)ethanol hydrochloride]: the negative-log IC50 (pIC50) was < 6.00.

Turning to `COC(=O)Cc1ccc(Cc2cc(C3CC3)nc(-c3cccc(Cl)c3)n2)cc1` [Example 208, Methyl 2-(4-((2-(3-chlorophenyl)-6-cyclopropylpyrimidin-4-yl)methyl)phenyl)acetate], the pIC50 was < 6.00.

The assay is the same for the next values; noted with them: read-out: PDE4D7 IC50.
As for `CN1CCN(c2cc(Nc3ccc(CC(N)=O)cc3)c3c(n2)CCC3)CC1` [Example 253, 2-(4-((2-(4-methylpiperazin-1-yl)-6,7-dihydro-5H-cyclopenta[b]pyridin-4-yl)amino)phenyl)acetamide hydrochloride], the pIC50 is < 6.00.

The same assay, now with this note: read-out: PDE4D7 IC50; PDE4D7 without asterisk.
Turning to `CCc1cc(Nc2ccc(C(C)(C)C(N)=O)cc2)nc(-c2cccc(Cl)c2)n1` [Example 187, 2-(4-((2-(3-Chlorophenyl)-6-ethylpyrimidin-4-yl)amino)phenyl)-2-methylpropanamide], the negative-log IC50 (pIC50) was < 6.00.

Regarding `OCCc1ccc(Nc2cc(-c3cccc(Cl)c3)nc3c2CCC3)cc1` [Example 6, 2-[4-[[2-(3-Chlorophenyl)-6,7-dihydro-5H-cyclopenta[b]pyridin-4-yl]amino]phenyl]ethanol], the negative logarithm of the IC50 (pIC50) is < 6.00.

Take `O=C(O)Cc1ccc(Nc2nc(-c3cccc(Cl)c3)nc(C3CC3)n2)cc1` [Example 36, 2-(4-((4-(3-chlorophenyl)-6-cyclopropyl-1,3,5-triazin-2-yl)amino)phenyl)acetic acid]: the negative-log IC50 (pIC50) is < 6.00.

With `OCCc1ccc(Nc2cc(-c3cccc(Cl)c3)nc3c2CCC3)cc1F` [Example 113, 2-(4-((2-(3-Chlorophenyl)-6,7-dihydro-5H-cyclopenta[b]pyridin-4-yl)amino)-2-fluorophenyl)ethanol hydrochloride], the negative-log IC50 (pIC50) was < 6.00.

With `NC(=O)Cc1ccc(Cc2cc(C3CC3)nc(-c3cccc(Cl)c3)n2)cc1` [Example 209, 2-(4-((2-(3-chlorophenyl)-6-cyclopropylpyrimidin-4-yl)methyl)phenyl)acetamide], the negative-log IC50 (pIC50) is < 6.00.

On to `O=C(O)Cc1ccc(Nc2cc(C3CC3)nc(-c3cccc(Cl)c3)n2)nc1` [Example 213, 2-(6-((2-(3-Chlorophenyl)-6-cyclopropylpyrimidin-4-yl)amino)pyridin-3-yl)acetic acid], for which the pIC50 was < 6.00.

For the molecule `CCc1c(C)nc(-c2ccc(Cl)s2)nc1NCc1ccc(B(O)O)cc1` [Example 311, [4-[[[2-(5-Chloro-2-thienyl)-5-ethyl-6-methyl-pyrimidin-4-yl]amino]methyl]phenyl]boronic acid], the negative logarithm of the IC50 (pIC50) was < 6.00.

With `CCc1cc(Cc2ccc(CC(=O)OC)cc2)nc(C2CCCC2)n1` [Example 223, Methyl 2-(4-((2-cyclopentyl-6-ethylpyrimidin-4-yl)methyl)phenyl)acetate], the negative logarithm of the IC50 (pIC50) is < 6.00.

For `NC(=O)C(Cc1ccc(Nc2cc(-c3cccc(Cl)c3)nc3c2CCC3)cc1)C(N)=O` [Example 122, 2-(4-((2-(3-Chlorophenyl)-6,7-dihydro-5H-cyclopenta[b]pyridin-4-yl)amino)benzyl)malonamide hydrochloride], the pIC50 was < 6.00.

Turning to `NC(=O)Cc1ccc(Nc2nc(-c3cccc(Cl)c3)nc3c2S(=O)(=O)CCC3)cc1` [Example 274, 2-(4-((2-(3-chlorophenyl)-5,5-dioxido-7,8-dihydro-6H-thiopyrano[3,2-d]pyrimidin-4-yl)amino)phenyl)acetamide], the pIC50 is > 6.00.

In the case of `O=S1(=O)CCCc2nc(-c3cccc(Cl)c3)nc(Nc3ccc(CCO)cc3)c21` [Example 273, 2-(3-Chlorophenyl)-4-((4-(2-hydroxyethyl)phenyl)amino)-7,8-dihydro-6H-thiopyrano[3,2-d]pyrimidine 5,5-dioxide], the negative logarithm of the IC50 (pIC50) is > 6.00.

Take `O=C(O)c1ccc(Nc2nc(-c3cccc(Cl)c3)nc(C3CC3)n2)cc1` [Example 41, 4-((4-(3-chlorophenyl)-6-cyclopropyl-1,3,5-triazin-2-yl)amino)benzoic acid]: the pIC50 is > 6.00.

Turning to `NC(=O)Cc1ccc(Nc2cc(C(F)(F)F)nc(OC3CCCC3)n2)cc1` [Example 198, 2-(4-((2-(Cyclopentyloxy)-6-(trifluoromethyl)pyrimidin-4-yl)amino)phenyl)acetamide], the pIC50 is < 6.00.

On to `CNC(=O)Cc1ccc(Nc2cc(-c3cccc(Cl)c3)nc3c2CCC3)cc1` [Example 120, 2-(4-((2-(3-chlorophenyl)-6,7-dihydro-5H-cyclopenta[b]pyridin-4-yl)amino)phenyl)-N-methylacetamide hydrochloride], for which the pIC50 was < 6.00.

Regarding `O=S1(=O)CCCc2nc(C3CCCC3)nc(Nc3ccc(CCCO)cc3)c21` [Example 287, 2-Cyclopentyl-4-((4-(3-hydroxypropyl)phenyl)amino)-7,8-dihydro-6H-thiopyrano[3,2-d]pyrimidine 5,5-dioxide], the negative-log IC50 (pIC50) is > 6.00.

For the molecule `N#CCc1ccc(Nc2c(Cl)c(-c3cccc(Cl)c3)nc3c2CCC3)cc1` [Example 291, 2-(4-((3-Chloro-2-(3-chlorophenyl)-6,7-dihydro-5H-cyclopenta[b]pyridin-4-yl)amino)phenyl)acetonitrile hydrochloride], the negative-log IC50 (pIC50) was < 6.00.

Take `OCCc1ccc(Cc2cc(C(F)(F)F)nc(C3CCCC3)n2)cc1` [Example 231, 2-(4-((2-Cyclopentyl-6-(trifluoromethyl)pyrimidin-4-yl)methyl)phenyl)ethanol]: the pIC50 is < 6.00.

On to `OCCCc1ccc(Nc2cc(-c3cccc(Cl)c3)nc(C(F)(F)F)c2)cc1` [Example 147, 3-(4-((2-(3-Chlorophenyl)-6-(trifluoromethyl)pyridin-4-yl)amino)phenyl)propan-1-ol], for which the pIC50 is > 6.00.

With `CCc1nc(Nc2ccc(C(=O)O)cc2)nc(-c2cccc(Cl)c2)n1` [Example 40, 4-((4-(3-chlorophenyl)-6-ethyl-1,3,5-triazin-2-yl)amino)benzoic acid], the pIC50 is > 6.00.

For `NC(=O)Cc1ccc(Nc2cc(C(F)(F)F)nc(C3CCCC3)n2)cc1` [Example 228, 2-(4-((2-Cyclopentyl-6-(trifluoromethyl)pyrimidin-4-yl)amino)phenyl)acetamide], the negative-log IC50 (pIC50) is > 6.00.

Turning to `CC(C)(C(=O)O)c1ccc(Cc2cc(-c3cccc(Cl)c3)nc3c2CCC3)cc1` [Example 126, 2-(4-((2-(3-Chlorophenyl)-6,7-dihydro-5H-cyclopenta[b]pyridin-4-yl)methyl)phenyl)-2-methylpropanoic acid hydrochloride], the pIC50 was < 6.00.

For the molecule `CCc1cc(Nc2ccc(CC(N)=O)cc2)nc(C2CCCC2)n1` [Example 221, 2-(4-((2-Cyclopentyl-6-ethylpyrimidin-4-yl)amino)phenyl)acetamide], the pIC50 was > 6.00.

In the case of `NC(=O)Cc1ccc(Nc2cc(C3CC3)nc(-c3cccc(Cl)c3)n2)cc1` [Example 207, 2-(4-((2-(3-Chlorophenyl)-6-cyclopropylpyrimidin-4-yl)amino)phenyl)acetamide], the pIC50 was > 6.00.

Take `NC(=O)Cc1ccc(Nc2cc(-c3ccc(F)c(Cl)c3)nc3c2CCC3)cc1` [Example 150, 2-(4-((2-(3-Chloro-4-fluorophenyl)-6,7-dihydro-5H-cyclopenta[b]pyridin-4-yl)amino)phenyl)acetamide hydrochloride]: the negative logarithm of the IC50 (pIC50) was < 6.00.

Broadly, the pIC50 is the IC50 on a negative log10 scale, so that one unit is a factor of ten.
